Values joined by “and” are separate entries in the source; they are usually repeats but may differ in a detail not shown here. Equal entries are not always repeated.
Molecular target: Adenosine A2A receptor (Homo sapiens, UniProt P29274)
Assay: cAMP assay in 293A cells stably expressing the adenosine A2A receptor (CGS21680 stimulation, HTRF)
Type: cell-based
Set-up: expressed in transfected cells; host or cells: 293A cells (Invitrogen, Cat# R705-07) infected with A2A-expressing lentivirus (custom packaged by Biosettia), puromycin selected
Settings: 293A-A2AR cells, 0.1% BSA, 1 uM CGS; read-out: cAMP (nM) 0.1% BSA, 1 uM CGS
Description: A 293A cell line (Invitrogen, Cat# R705-07) stably expressing the adenosine A2A receptor was generated in house. Briefly, 293A cells were seeded in 6-well plate and infected with A2A expressing lentivirus (custom packaged by Biosettia) and selected with puromycin (1 ug/ml). Cells survived selection were confirmed for A2A expression by RT-qPCR (RT Reagent: High-Capacity cDNA Reverse Transcription Kit, Applied Biosystems/Thermo Fisher Cat# 4368814, qPCR reagent: SYBR™ Green Master Mix, Applied Biosystems/Thermo Fisher Cat# 4309155). The cells were maintained in DMEM/F12 medium containing 10% FBS, 100 units/ml Penicillin, 100 μg/ml Streptomycin, and 1 μg/ml puromycin at 37° C., 5% CO2. 293A-A2AR cells were harvested on the day of assay and resuspended at 0.6 million cells/ml in DMEM/F12 with 0.1% BSA and 30 U/ml denosine deaminase(Roche, Cat #: 10102121001). Serial dilutions of compounds were prepared in DMEM/F12 with 0.1% BSA to a DMSO concentration of 0.6%. After 4 μl of compound dilutions were added, 4 μl suspended cells were dispensed into low-volume white 384-well plates (Greiner Bio-One). […] The assay plate was then incubated at room temperature for 30 min. 3 μl of d2 conjugated cAMP and 3 μl cryptate conjugated anti-cAMP antibody were then added. D2 conjugated cAMP and cryptate conjugated anti-cAMP antibody (Cisbio, Cat #: 62AM6PEC) were both prepared in cell lysis buffer according to the manufacturer's instruction. After 1 h incubation at room temperature, plates were read in CIARIOstar plate reader (BMG Labtech) using the HTRF detection mode.

Sequence of Adenosine A2A receptor (P29274 whole entry): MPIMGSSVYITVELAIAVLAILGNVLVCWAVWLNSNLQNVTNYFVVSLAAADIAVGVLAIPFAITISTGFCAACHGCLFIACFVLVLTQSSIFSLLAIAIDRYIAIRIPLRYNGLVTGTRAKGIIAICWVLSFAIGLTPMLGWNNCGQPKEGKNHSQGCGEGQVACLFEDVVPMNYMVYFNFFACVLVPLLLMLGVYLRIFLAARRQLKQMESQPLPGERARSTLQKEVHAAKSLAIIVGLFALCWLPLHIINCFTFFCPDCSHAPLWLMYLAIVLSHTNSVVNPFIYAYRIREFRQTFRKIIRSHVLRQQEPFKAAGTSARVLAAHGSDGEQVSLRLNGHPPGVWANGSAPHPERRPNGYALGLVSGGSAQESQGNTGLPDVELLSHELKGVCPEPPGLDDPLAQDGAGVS

Row | IC50 | SMILES
1 | 4350 nM | Cc1cc(-c2c(OCc3cccc(N4CC(C(=O)O)C4)n3)nc(N)nc2-c2ccc(F)cc2)cc(C(F)F)n1 [Example 293, 1-(6-(((2-amino-5-(2-(difluoromethyl)-6-methylpyridin-4-yl)-6-(4-fluorophenyl)pyrimidin-4-yl)oxy)methyl)pyridin-2-yl)azetidine-3-carboxylic acid]
2 | 19700 nM | Cc1cc(-c2c(OCc3cccc(N4CCC[C@@H]4C(=O)O)n3)nc(N)nc2-c2ccc(F)cc2)cc(C(F)F)n1 [Example 294, (6-(((2-amino-5-(2-(difluoromethyl)-6-methylpyridin-4-yl)-6-(4-fluorophenyl)pyrimidin-4-yl)oxy)methyl)pyridin-2-yl)-D-proline]
3 | 3630 nM | Cc1cc(-c2c(OCc3cccc(C(C)(C)OCC(=O)O)n3)nc(N)nc2-c2ccc(F)cc2)cc(C(F)F)n1 [Example 296, 2-((2-(6-(((2-amino-5-(2-(difluoromethyl)-6-methylpyridin-4-yl)-6-(4-fluorophenyl)pyrimidin-4-yl)oxy)methyl)pyridin-2-yl)propan-2-yl)oxy)acetic acid]
4 | 965 nM | Cc1cc(-c2c(OCc3cccc(C(O)CO)n3)nc(N)nc2-c2ccc(F)cc2)cc(C(F)F)n1 (centres unmarked) [Example 303, 1-(6-(((2-amino-5-(2-(difluoromethyl)-6-methylpyridin-4-yl)-6-(4-fluorophenyl)pyrimidin-4-yl)oxy)methyl)pyridin-2-yl)ethane-1,2-diol]
5 | 681 nM | Cc1cc(-c2c(OCCOc3cccc(CO)n3)nc(N)nc2-c2ccc(F)cc2)cc(C(F)F)n1 [Example 304, (6-(2-((2-amino-5-(2-(difluoromethyl)-6-methylpyridin-4-yl)-6-(4-fluorophenyl)pyrimidin-4-yl)oxy)ethoxy)pyridin-2-yl)methanol]
6 | 164 nM and 197 nM and 159 nM and 113 nM | Cc1cc(-c2c(OCc3ccnc(C(C)(C)O)n3)nc(N)nc2-c2ccc(F)cc2)cc(C(F)F)n1 [Example 308]
7 | 1370 nM | Cc1cc(-c2c(OCc3cccc(N4CC[C@H](C(=O)O)C4)n3)nc(N)nc2-c2ccc(F)cc2)cc(C(F)F)n1 [Example 309, (S)-1-(6-(((2-amino-5-(2-(difluoromethyl)-6-methylpyridin-4-yl)-6-(4-fluorophenyl)pyrimidin-4-yl)oxy)methyl)pyridin-2-yl)pyrrolidine-3-carboxylic acid]
8 | 2490 nM | Cc1cc(-c2c(OCc3cccc(N4CC[C@@H](C(=O)O)C4)n3)nc(N)nc2-c2ccc(F)cc2)cc(C(F)F)n1 [Example 310, (R)-1-(6-(((2-amino-5-(2-(difluoromethyl)-6-methylpyridin-4-yl)-6-(4-fluorophenyl)pyrimidin-4-yl)oxy)methyl)pyridin-2-yl)pyrrolidine-3-carboxylic acid]
9 | > 10000 nM | Cc1cc(-c2c(OCc3cccc(N4CCC[C@H]4C(=O)O)n3)nc(N)nc2-c2ccc(F)cc2)cc(C(F)F)n1 [Example 311, (6-(((2-amino-5-(2-(difluoromethyl)-6-methylpyridin-4-yl)-6-(4-fluorophenyl)pyrimidin-4-yl)oxy)methyl)pyridin-2-yl)-L-proline]

Second part, the compound before the results:

Row | SMILES | IC50
10 | Cc1cc(-c2c(OCc3nnn(CC(C)(C)O)n3)nc(N)nc2-c2ccc(F)cc2)cc(C(F)F)n1 [Example 291, 1-(5-(((2-amino-5-(2-(difluoromethyl)-6-methylpyridin-4-yl)-6-(4-fluorophenyl)pyrimidin-4-yl)oxy)methyl)-2H-tetrazol-2-yl)-2-methylpropan-2-ol] | 5490 nM
11 | Cc1cc(-c2c(OCc3nnnn3CC(C)(C)O)nc(N)nc2-c2ccc(F)cc2)cc(C(F)F)n1 [Example 292, 1-(5-(((2-amino-5-(2-(difluoromethyl)-6-methylpyridin-4-yl)-6-(4-fluorophenyl)pyrimidin-4-yl)oxy)methyl)-1H-tetrazol-1-yl)-2-methylpropan-2-ol] | 708 nM
12 | Cc1cc(-c2c(-c3ccc(F)cc3)nc(N)nc2-c2cn(Cc3cccc(C(C)(C)O)n3)nn2)cc(C(F)F)n1 [Example 298, 2-(6-((4-(2-amino-5-(2-(difluoromethyl)-6-methylpyridin-4-yl)-6-(4-fluorophenyl)pyrimidin-4-yl)-1H-1,2,3-triazol-1-yl)methyl)pyridin-2-yl)propan-2-ol] | > 10000 nM
13 | Cc1cc(-c2c(OCCc3cccnc3)nc(N)nc2-c2ccc(F)cc2)cc(C(F)F)n1 [Example 299, 5-(2-(difluoromethyl)-6-methylpyridin-4-yl)-4-(4-fluorophenyl)-6-(2-(pyridin-3-yl)ethoxy)pyrimidin-2-amine] | 1110 nM
14 | CCc1nn(CC(C)(C)C(=O)O)nc1COc1nc(N)nc(-c2ccc(F)cc2)c1-c1cc(C)nc(C(F)F)c1 [Example 300, 3-(4-(((2-amino-5-(2-(difluoromethyl)-6-methylpyridin-4-yl)-6-(4-fluorophenyl)pyrimidin-4-yl)oxy)methyl)-5-ethyl-2H-1,2,3-triazol-2-yl)-2,2-dimethylpropanoic acid] | > 10000 nM
15 | CCc1nnn(CC(C)(C)C(=O)O)c1COc1nc(N)nc(-c2ccc(F)cc2)c1-c1cc(C)nc(C(F)F)c1 [Example 301, 3-(5-(((2-amino-5-(2-(difluoromethyl)-6-methylpyridin-4-yl)-6-(4-fluorophenyl)pyrimidin-4-yl)oxy)methyl)-4-ethyl-1H-1,2,3-triazol-1-yl)-2,2-dimethylpropanoic acid] | > 10000 nM
16 | CCc1c(COc2nc(N)nc(-c3ccc(F)cc3)c2-c2cc(C)nc(C(F)F)c2)nnn1CC(C)(C)C(=O)O [Example 302, 3-(4-(((2-amino-5-(2-(difluoromethyl)-6-methylpyridin-4-yl)-6-(4-fluorophenyl)pyrimidin-4-yl)oxy)methyl)-5-ethyl-1H-1,2,3-triazol-1-yl)-2,2-dimethylpropanoic acid] | > 10000 nM
17 | Cc1cc(-c2c(OCc3ccnc(N(C)C)n3)nc(N)nc2-c2ccc(F)cc2)cc(C(F)F)n1 [Example 307, 4-(((2-amino-5-(2-(difluoromethyl)-6-methylpyridin-4-yl)-6-(4-fluorophenyl)pyrimidin-4-yl)oxy)methyl)-N,N-dimethylpyrimidin-2-amine] | 211 nM and 246 nM
18 | Cc1cc(-c2c(-c3cn(Cc4cccc(C(C)(C)O)n4)nn3)nc(N)nc2-c2cccc(C#N)c2C)cc(C(F)F)n1 [Example 312, 3-(2-amino-5-(2-(difluoromethyl)-6-methylpyridin-4-yl)-6-(1-((6-(2-hydroxypropan-2-yl)pyridin-2-yl)methyl)-1H-1,2,3-triazol-4-yl)pyrimidin-4-yl)-2-methylbenzonitrile] | 16600 nM
19 | CCc1nn(C[C@H](O)CO)nc1COc1nc(N)nc(-c2ccc(F)cc2)c1-c1cc(C)nc(C(F)F)c1 [Example 316, (S)-3-(4-(((2-amino-5-(2-(difluoromethyl)-6-methylpyridin-4-yl)-6-(4-fluorophenyl)pyrimidin-4-yl)oxy)methyl)-5-ethyl-2H-1,2,3-triazol-2-yl)propane-1,2-diol] | 1080 nM
20 | CCc1c(COc2nc(N)nc(-c3ccc(F)cc3)c2-c2cc(C)nc(C(F)F)c2)nnn1C[C@H](O)CO [Example 317, (S)-3-(4-(((2-amino-5-(2-(difluoromethyl)-6-methylpyridin-4-yl)-6-(4-fluorophenyl)pyrimidin-4-yl)oxy)methyl)-5-ethyl-1H-1,2,3-triazol-1-yl)propane-1,2-diol] | 1430 nM
